One series has as its system proteases. Conditions: limits duration of activity; cited from earlier work.
The subject of a further series is CCK. To be noted: recently reported, J. M. Howard et al.; cited from earlier work.
Another series deals with T1, CCK receptor (pancreas) (Rattus norvegicus, UniProt P30551).
T1 construct: The whole pancreas was dissected free of fat tissue and was homogenized; from tissue; host or cells: rat pancreas membranes (male Sprague-Dawley)
T1 sequence (P30551 1-444): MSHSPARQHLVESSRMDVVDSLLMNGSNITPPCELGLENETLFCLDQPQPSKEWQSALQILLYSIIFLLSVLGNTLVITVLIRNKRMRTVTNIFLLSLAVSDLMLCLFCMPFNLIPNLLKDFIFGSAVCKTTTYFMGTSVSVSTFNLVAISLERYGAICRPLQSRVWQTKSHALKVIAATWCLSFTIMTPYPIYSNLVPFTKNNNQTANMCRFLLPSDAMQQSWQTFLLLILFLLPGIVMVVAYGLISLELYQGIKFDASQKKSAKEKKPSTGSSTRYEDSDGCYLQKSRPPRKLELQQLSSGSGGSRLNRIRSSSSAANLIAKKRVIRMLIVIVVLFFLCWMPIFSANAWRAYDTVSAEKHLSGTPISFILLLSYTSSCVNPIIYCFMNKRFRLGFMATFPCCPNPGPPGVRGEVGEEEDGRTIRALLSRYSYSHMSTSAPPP
The experiment in a line: CCK Receptor Binding (Pancreas), 125I-CCK-33. Also on record: species or system rat (male Sprague-Dawley). To be noted: for IC50: rat pancreas membranes, 125I-CCK-33, 37° C., 30 minutes; for effect on the 125I-CCK receptor binding assay: added protease inhibitors. The method, then:
1. CCK Receptor BindinG (Pancreas)
CCK-33 was radiolabeled with ^125 I-Bolton Hunter reagent (2000 Ci/mmole) as described by Sankara et al. (J. Biol. Chem. 254: 9349-9351, 1979). Receptor bindinG was performed according to Innis and Snyder (Proc. Natl. Acad. Sci. 77: 6917-6921, 1980) with the minor modification of adding the additional protease inhibitors, phenylmethane sulfonyl fluoride and o-phenanthroline. The latter two compounds have no effect on the ^125 I-CCK receptor bindinG assay.
Male Sprague-Dawley rats (200-350 g) were sacrificed by decapitation. The whole pancreas was dissected free of fat tissue and was homogenized in 20 volumes of ice-cold 50 mM, Tris HCl (pH 7.7 at 25° C.) with a Brinkmann Polytron PT 10. The homogenates were centrifuged at 48,000 g for 10 min. Pellets were resuspended in Tris Buffer, centrifuged as above and resuspended in 200 volumes of binding assay buffer (50 mM Tris HCl, pH 7.7 at 25° C., 5 mM dithiothrietol, 0.1 mM bacitracin, 1.2 mM phenylmethane sulfonyl fluoride and 0.5 mM o-phenanthroline). For the binding assay, 25 μl of buffer (for total binding) or unlabeled CCK-8 sulfate to give a final concentration of 1 μM (for nonspecific binding) or the compounds of Formula I (for determination of inhibition of ^125 I CCK binding) and 25 μl of ^125 I-CCK 33 (30,000-40,000 cpm) were added to 450 μl of the membrane suspensions in microfuge tubes. All assays were run in duplicate or triplicate. The reaction mixtures were incubated at 37° C. for 30 minutes and centrifuged in a Beckman Microfuge (4 minutes) immediately after adding 1 ml of ice-cold incubation buffer. The supernatant was aspirated and discarded, pellets were counted with a Beckman gamma 5000. For Scatchard analysis (Ann. N.Y. Acad. Sci. 51: 660, 1949), ^125 I CCK 33 was progressively diluted with increasing concentrations of CCK 33.
1. Effect of The Compounds of Formula I on ^125 I-CCK-33 receptor binding
The preferred compounds of Formula I are those which inhibited specific ^125 I-CCK-33 binding in a concentration dependent manner.
A Ki value (dissociation constant of inhibitor) of the compounds of Formula I was estimated.

Series [1] deals with T2, gastrin receptor (gastric glands) (Cavia porcellus, UniProt H0VZC5).
T2 construct: from tissue; host or cells: guinea pig gastric mucosal glands (male Hartley)
T2 sequence (H0VZC5 1-426): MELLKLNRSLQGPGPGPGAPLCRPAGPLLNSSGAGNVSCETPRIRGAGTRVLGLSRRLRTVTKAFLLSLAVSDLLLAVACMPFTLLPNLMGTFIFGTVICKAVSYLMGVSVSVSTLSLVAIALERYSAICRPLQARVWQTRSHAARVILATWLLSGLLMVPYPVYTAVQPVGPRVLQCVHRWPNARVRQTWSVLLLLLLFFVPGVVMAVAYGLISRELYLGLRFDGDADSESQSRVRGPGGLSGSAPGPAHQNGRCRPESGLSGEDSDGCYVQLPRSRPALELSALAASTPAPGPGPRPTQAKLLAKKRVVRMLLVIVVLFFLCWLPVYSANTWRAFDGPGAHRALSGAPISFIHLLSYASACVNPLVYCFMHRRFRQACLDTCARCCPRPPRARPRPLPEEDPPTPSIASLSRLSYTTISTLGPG
Briefly: Gastrin Receptor Binding in Guinea Pig Gastric Glands, 125I-gastrin. To be noted: 25° C., 30 minutes. Also on record: species or system guinea pig (male Hartley). Here is the method: Gastrin antagonist activity of compounds of Formula I was determined using the following assay.
Gastrin Receptor Binding in Guinea Pig Gastric Glands Preparation of guinea pig gastric mucosal glands
Guinea pig gastric mucosal glands were prepared by the procedure of Berglingh and Obrink Acta Physiol. Scand. 96: 150 (1976) with a slight modification according to Praissman et al. C. J. Receptor Res. 3: (1983). Gastric mucosa from guinea pigs ( 300-500 g body weight, male Hartley) were washed thoroughly and minced with fine scissors in standard buffer consisting of the following: 130 mM NaCl, 12 mM NaHCo3, 3 mM NaH2 PO4, 3 mM Na2 HPO4, 3 mM K2 HPO4, 2 mM MgSO4, 1 mM CaCl2, 5 mM glucose and 4 mM L-glutamine, 25 mM HEPES at pH 7.4. The minced tissues were washed and then incubated in a 37° C. shaker bath for 40 minutes with the buffer containing 0.1% collagenase and 0.1% BSA and bubbled with 95% o2 and 5% CO2. The tissues were passed twice through a 5 ml glass syringe to liberate the gastric glands, and then filtered through 200 mesh nylon. The filtered glands were centrifuged at 270 g for 5 minutes and washed twice by resuspension and centrifugation.
The washed guinea pig gastric glands prepared as above were resuspended in 25 ml of standard buffer containing 0.25 mg/ml of bacitracin. For binding studies, to 220 μl of gastric glands in triplicate tubes, 10 μl of buffer (for total binding) or gastrin (1 μM final concentration, for nonspecific binding) or test compound and 10 μl of ^125 I-gastrin (NEN, 2200 Ci/mmole, 25 pM final) or ^3 H pentagastrin (NEN 22 Ci/mmole, 1 nM final) were added. The tubes were aerated with 95% O2 and 5% CO2 and capped. The reaction mixtures after incubation at 25° C. for 30 minutes were filtered under reduced pressure on glass G/F B filters (Whatman) and immediately washed further with 4×4 ml of standard buffer containing 0.1% BSA. The radioactivity on the filters was measured using a Beckman gamma 5500 for ^125 I-gastrin or liquid scintillation counting for ^3 H-pentagastrin.

Series [2] concerns the target T3, CCK receptor (brain, cerebral cortex) (Cavia porcellus, UniProt H0VZC5).
T3 construct: Cerebral cortex was dissected and used as a receptor source; from tissue; host or cells: guinea pig cerebral cortex membranes (male Hartley)
T3 sequence (H0VZC5 1-426): T2 sequence (H0VZC5 1-426)
The experiment in a line: CCK Receptor Binding (Brain), 125I-CCK-33. Also on record: species or system guinea pig (male Hartley). Conditions: guinea pig cerebral cortex, 25° C., 2 hours. The method, then: 2. CCK Receptor Binding (Brain)
CCK 33 was radiolabeled and the binding was performed according to the description for the pancreas method with modifications according to Saito et al., J. Neurochem. 37:483-490, 1981.
Male Hartley guinea pigs (300-500 g) were sacrificed by decapitation and the brains were removed and placed in ice-cold 50 mM, Tris HCl plus 7.58 g/1 Trizma-7.4 (pH 7.4 at 25° C.). Cerebral cortex was dissected and used as a receptor source. Each gram of fresh guinea pig brain tissue was homogenized in 10 ml of Tris/Trizma buffer with a Brinkman polytron PT-10. The homogenates were centrifuged at 42,000 g for 15 minutes. Pellets were resuspended in Tris Buffer, centrifuged as above and resuspended in 200 volumes of binding assay buffer (10 mM N-2 -hydroxyethyl-piperazine-N'-2-ethane sulfonic acid (HEPES), 5 mM MgCl2, 0.25 mg/ml bacitracin, 1 mM ethylene glycol-bis-(β-aminoethylether-N,N'-tetraacetic acid) (EGTA), and 0.4% bovine serum albumin (BSA)). For the binding assay, 25 μl of buffer (for total binding) or unlabeled CCK-8 sulfate to give a final concentration of 1 μm (for nonspecific binding) or the compounds of Formula I (for determination of inhibition of ^125 I CCK binding) and 25 μl of ^125 I-CCK-33 (30,000-40,000 cpm) were added to 450 μl of the membrane suspensions in microfuge tubes. All assays were run in duplicate or triplicate. The reaction mixtures were incubated at 25° C. for 2 hours and centrifuged in a Beckman Microfuge (4 minutes) immediately after adding 1 ml of ice cold incubation buffer. The supernatant was aspirated and discarded, pellets were counted with a Beckman gamma 5000.

Molecules are shown by their SMILES. Non-standard residues stand in square brackets, D forms with d. Residues, ends and D or L forms follow the SMILES beside them. *: point of attachment. sY = N[C@@H](Cc1ccc(OS(=O)(=O)O)cc1)C(=O)O; Cbz = O=C(OCc1ccccc1)*

As to `CSCC[C@H](NC(=O)[C@H](Cc1ccc(OS(=O)(=O)O)cc1)NC(=O)OCc1ccccc1)C(=O)NCC(=O)N[C@@H](Cc1c[nH]c2ccccc12)C(=O)N[C@@H](CCSC)C(=O)N[C@@H](CC(=O)O)C(N)=O` [Cbz-Tyr(SO3 H)-Met-Gly-Trp-Met-Asp-NH2] (Cbz-[sY]MGWMD-NH2), the degradation by proteases result in the series with proteases is reported as “liable to degradation by proteases”. Besides, in the series on CCK, the CCK agonist/antagonist character result is reported as “partial agonist”. With `Nc1cc2c(cn1)[nH]c1ccccc12` [Example 2, 3-Amino-9H-pyrido(3,4-b)indole], the IC50 (at CCK receptor (pancreas); in series [1]; in series [2]) was greater than 100 µM each time. Turning to `O=C(Nc1cc2c(cn1)[nH]c1ccccc12)c1ccc(Cl)cc1` [Example 3, 4-Chloro-N-9H-pyrido(3.4-b)indol-3-yl-benzamide], the IC50 (in general, the point on the concentration scale where inhibition reaches its midpoint) on CCK receptor (pancreas) was found to be 3.5 µM.

Consider `O=C(Nc1ccc(Cl)cc1)Nc1cc2c(cn1)[nH]c1ccccc12` [Example 4, N-(4-Chlorophenyl)-N^1 9-H-pyrido(3,4-b)indol-3-yl-urea], for which, at CCK receptor (pancreas), the IC50 worked out at 0.085 µM.

As to `O=C(Nc1cc2c(cn1)[nH]c1ccccc12)c1cccs1` [Example 5, N-9H-Pyrido(3,4-b)indol-3-yl 2 thiophene Carboxamide], the IC50 at CCK receptor (pancreas) is 9.8 µM; in series [1], greater than 100 µM; in series [2], roughly 130 µM. For the compound `Cn1c(C(=O)Nc2cc3c(cn2)[nH]c2ccccc23)cc2ccccc21` [Example 6, N-9H-Pyrido(3,4-b)indol-3-yl-1-methyl-1H-indole-2-carboxamide], the IC50 on CCK receptor (pancreas) is 0.71 µM; in series [1], greater than 100 µM; in series [2], greater than 100 µM. Regarding `O=C(Cc1c[nH]c2ccccc12)Nc1cc2c(cn1)[nH]c1ccccc12` [Example 7, N-9H-Pyrido(3,4-b)indol-3-yl-1H-indole 3-acetamide], on CCK receptor (pancreas), the IC50 amounted to 0.024 µM.

On to `O=C(Nc1cc2c(cn1)[nH]c1ccccc12)c1ccccc1` [Example 8, N-9H-Pyrido(3,4-b)indol-3-yl benzamide], for which the values for the IC50 (at CCK receptor (pancreas); in series [1]; in series [2]) were 7.1 µM, greater than 100 µM and 223 µM, respectively. The corresponding values for `O=C(Cc1ccccc1)Nc1cc2c(cn1)[nH]c1ccccc12` [Example 9, N-9H-Pyrido(3,4-b)indol-3-yl benzene Acetamide] are 0.04 µM, 14 µM and 34 µM. In the case of `O=C(CCc1ccccc1)Nc1cc2c(cn1)[nH]c1ccccc12` [Example 10, N-9H-Pyrido(3,4-b)indol-3-yl benzene Propanamide], at CCK receptor (pancreas), the IC50 is 0.33 µM. Take `c1cnc2c(c1)ccc1cccnc12` [o-phenanthroline, reference compound]: at CCK receptor (pancreas), the “effect on the 125I-CCK receptor binding assay” value is “no effect”.

On to `O=S(=O)(F)Cc1ccccc1` [phenylmethane sulfonyl fluoride, reference compound], for which, on CCK receptor (pancreas), the “effect on the 125I-CCK receptor binding assay” value is recorded as “no effect”.

The record behind these values is patent publication US5223509A, “β-carbolines as cholecystokinin and gastrin antagonists” (priority 1992, dated 1993).
